Results taken from patent publication US10857246B2, “Nuclear imaging and radiotherapeutics agents targeting carbonic anhydrase IX and uses thereof” (THE JOHNS HOPKINS UNIVERSITY, priority 2015, dated 2020).
“And” between values parts separate entries of the source, which are not always exact repeats. Identical values can stand only once.

System: CAIX-expressing SK-RC-52 tumors
Assay: Biodistribution in mice bearing SK-RC-52 xenografts
Assay type: in vivo
Details: for Biodistribution Bladder / Biodistribution Blood / Biodistribution Brain / Biodistribution Fat / Biodistribution Heart / Biodistribution Kidney / Biodistribution Liver / Biodistribution Lung / Biodistribution Muscle / Biodistribution Pancreas / Biodistribution Small intestine / Biodistribution Spleen / Biodistribution Stomach / Biodistribution Tumor / Tumor/Kidney ratio / Tumor/Blood ratio / Tumor/Muscle ratio: 740 kBq i.v.
Description: Animal experiments were performed in accordance with protocols approved by the Johns Hopkins Animal Care and Use Committee (ACUC). Six-week-old female NOD/SCID mice were purchased from the Animal Resource Core of the Sidney Kimmel Comprehensive Cancer Center of Johns Hopkins and were subcutaneously injected in the lower left flank or upper right flank with 1×10^6 SK-RC-52 cells in RPMI 1640 GlutaMAX™ media (Life Technologies, Frederick, Md.) supplemented with 1% fetal bovine serum (FBS). Mice were monitored for tumor size and used for SPECT/CT imaging when the size of the tumor reached 100 mm^3.
Mice bearing SK-RC-52 xenografts at lower left flank were injected intravenously with 740 kBq (20 μCi) of [^111In]XYIMSR-01, or [^177Lu]XYIMSR-01 in 200 μL of PBS. For competitive blocking, same tumor bearing mice were injected with 740 kBq (20 μCi) of [^111In]XYIMSR-01 and 200 nmole of 8 in 200 μL of PBS. At 1 h, 4 h, 8 h, 24 h and 48 h post-injection, mice were sacrificed by cervical dislocation and the blood was immediately collected by cardiac puncture. Heart, lungs, pancreas, spleen, fat, brain, muscle, small intestines, liver, stomach, kidney, urinary bladder, and tumor were collected. Each organ was weighed and the tissue radioactivity was measured with an automated gamma counter (1282 Compugamma CS, Pharmacia/LKBNuclear, Inc., Mt. Waverly, Vic. Australia). The percentage of injected dose per gram of tissue (% ID/g) was calculated by comparison with samples of a standard dilution of the initial dose. All measurements were corrected for radioactive decay.
Data were expressed as mean±standard deviation (SD). Prism software (GraphPAD, San Diego, Calif.) was used to determine statistical significance. Statistical significance was calculated using a paired t test. P-values <0.0001 were considered significant.
Mice bearing SK-RC-52 xenografts within the lower left flank were injected intravenously with 740 kBq (20 μCi) of [Al^18F]XYIMSR-04 in 200 μL of PBS. At specific 1 hour time point mentioned in the paper, mice (n=5) were sacrificed by cervical dislocation and the blood was immediately collected by cardiac puncture. Heart, lungs, pancreas, spleen, fat, brain, muscle, small intestines, liver, bone, stomach, kidney, urinary bladder, and tumor were collected. Each organ was weighed and the tissue radioactivity was measured with an automated gamma counter (1282 Compugamma CS, Pharmacia/LKBNuclear, Inc., Mt. Waverly, Vic. Australia). The percentage of injected dose per gram of tissue (% ID/g) was calculated by comparison with samples of a standard dilution of the initial dose. All measurements were corrected for radioactive decay. Data were expressed as mean±standard deviation (SD). Prism software (GraphPAD, San Diego, Calif.) was used to determine statistical significance. Statistical significance was calculated using a paired t test. P-values <0.0001 were considered significant.
Mice bearing SK-RC-52 xenografts within the upper right flank were injected intravenously with 740 kBq (20 μCi) of [^64Cu]XYIMSR-06 in 200 μL of PBS. For in vivo competition (binding specificity) studies, tumor-bearing mice were injected with 740 kBq (20 μCi) of [^64Cu]XYIMSR-06 and 200 nmole of 8 in 200 μL of PBS concurrently. At specific times after injection (1 h, 4 h, 8 h and 24 h), mice (n=5) were sacrificed by cervical dislocation with blood immediately collected by cardiac puncture. Heart, lungs, pancreas, spleen, fat, brain, muscle, small intestines, liver, stomach, kidney, urinary bladder, and tumor were also collected. Each organ was weighed and the tissue radioactivity was measured with an automated gamma counter (1282 Compugamma CS, Pharmacia/LKBNuclear, Inc., Mt. Waverly, Vic. Australia). The percentage of injected dose per gram of tissue (% ID/g) was calculated by comparison with samples of a standard dilution of the initial dose. All measurements were corrected for radioactive decay. Data were expressed as mean±standard deviation (SD). […]

Compound: CC(CCC(=O)N[C@@H](CC(=O)N[C@@H](CC(=O)N[C@@H](CCCCn1cc(CCCC(=O)Nc2nnc(S(N)(=O)=O)s2)nn1)C(=O)NCCOCCOCCNC(=O)CN1CCN(CC(=O)[O-])CCN(CC(=O)[O-])CCN(CC(=O)[O-])CC1)C(=O)O)C(=O)O)(c1ccc(O)cc1)c1ccc(O)cc1.[111In+3] [[^111In]XYIMSR-01]
- Biodistribution Bladder (1 h post-injection): 4.90 % ID/g
- Biodistribution Blood (1 h post-injection): 1.34 % ID/g
- Biodistribution Brain (1 h post-injection): 1.23 % ID/g
- Biodistribution Fat (1 h post-injection): 1.03 % ID/g
- Biodistribution Heart (1 h post-injection): 5.98 % ID/g
- Biodistribution Kidney (1 h post-injection): 71.26 % ID/g
- Biodistribution Liver (1 h post-injection): 8.36 % ID/g
- Biodistribution Lung (1 h post-injection): 45.85 % ID/g
- Biodistribution Muscle (1 h post-injection): 2.34 % ID/g
- Biodistribution Pancreas (1 h post-injection): 3.81 % ID/g
- Biodistribution Small intestine (1 h post-injection): 9.37 % ID/g
- Biodistribution Spleen (1 h post-injection): 0.52 % ID/g
- Biodistribution Stomach (1 h post-injection): 16.71 % ID/g
- Biodistribution Tumor (1 h post-injection): 26 % ID/g and 26.01 % ID/g
- Tumor/Kidney ratio (1 h post-injection): 0.36
- Biodistribution Bladder (4 h post-injection): 2.68 % ID/g
- Biodistribution Blood (4 h post-injection): 0.65 % ID/g
- Biodistribution Brain (4 h post-injection): 0.45 % ID/g
- Biodistribution Fat (4 h post-injection): 0.42 % ID/g
- Biodistribution Heart (4 h post-injection): 2.91 % ID/g
- Biodistribution Kidney (4 h post-injection): 41.52 % ID/g
- Biodistribution Liver (4 h post-injection): 4.00 % ID/g
- Biodistribution Lung (4 h post-injection): 17.85 % ID/g
- Biodistribution Muscle (4 h post-injection): 1.01 % ID/g
- Biodistribution Pancreas (4 h post-injection): 1.54 % ID/g
- Biodistribution Small intestine (4 h post-injection): 4.27 % ID/g
- Biodistribution Spleen (4 h post-injection): 0.51 % ID/g
- Biodistribution Stomach (4 h post-injection): 7.91 % ID/g
- Biodistribution Tumor (4 h post-injection): 20.83 % ID/g
- Tumor/Blood ratio (4 h post-injection): 31.9
- Tumor/Kidney ratio (4 h post-injection): 0.50
- Tumor/Muscle ratio (4 h post-injection): 21.4
- Biodistribution Bladder (8 h post-injection): 2.28 % ID/g
- Biodistribution Blood (8 h post-injection): 0.48 % ID/g
- Biodistribution Brain (8 h post-injection): 0.59 % ID/g
- Biodistribution Fat (8 h post-injection): 0.45 % ID/g
- Biodistribution Heart (8 h post-injection): 2.61 % ID/g
- Biodistribution Kidney (8 h post-injection): 28.79 % ID/g
- Biodistribution Liver (8 h post-injection): 3.65 % ID/g
- Biodistribution Lung (8 h post-injection): 17.39 % ID/g
- Biodistribution Muscle (8 h post-injection): 1.09 % ID/g
- Biodistribution Pancreas (8 h post-injection): 1.61 % ID/g
- Biodistribution Small intestine (8 h post-injection): 4.31 % ID/g
- Biodistribution Spleen (8 h post-injection): 0.64 % ID/g
- Biodistribution Stomach (8 h post-injection): 8.74 % ID/g
- Biodistribution Tumor (8 h post-injection): 34.0 % ID/g
- Tumor/Blood ratio (8 h post-injection): 77.0
- Tumor/Kidney ratio (8 h post-injection): 3.1
- Tumor/Muscle ratio (8 h post-injection): 34.2
- All other tumor/organ ratios (24 h): ≥ 10
- Biodistribution Bladder (24 h + block (200 nmole of 8)): 0.20 % ID/g
- Biodistribution Blood (24 h + block (200 nmole of 8)): 0.03 % ID/g
- Biodistribution Brain (24 h + block (200 nmole of 8)): 0.03 % ID/g
- Biodistribution Fat (24 h + block (200 nmole of 8)): 0.02 % ID/g
- Biodistribution Heart (24 h + block (200 nmole of 8)): 0.04 % ID/g
- Biodistribution Kidney (24 h + block (200 nmole of 8)): 0.68 % ID/g
- Biodistribution Liver (24 h + block (200 nmole of 8)): 0.10 % ID/g
- Biodistribution Lung (24 h + block (200 nmole of 8)): 0.12 % ID/g
- Biodistribution Muscle (24 h + block (200 nmole of 8)): 0.02 % ID/g
- Biodistribution Pancreas (24 h + block (200 nmole of 8)): 0.03 % ID/g
- Biodistribution Small intestine (24 h + block (200 nmole of 8)): 0.08 % ID/g
- Biodistribution Spleen (24 h + block (200 nmole of 8)): 0.08 % ID/g
- Biodistribution Stomach (24 h + block (200 nmole of 8)): 0.14 % ID/g
- Biodistribution Tumor (24 h + block (200 nmole of 8)): 1.41 % ID/g
- Tumor/Blood ratio (24 h + block (200 nmole of 8)): 45.2
- Tumor/Kidney ratio (24 h + block (200 nmole of 8)): 2.1
- Tumor/Muscle ratio (24 h + block (200 nmole of 8)): 91.4
- Uptake to tumors with simultaneously injected non-radioactive competitor 8 (24 h and 48 h post injection): ~1%
- Biodistribution Bladder (24 h post-injection): 0.74 % ID/g
- Biodistribution Blood (24 h post-injection): 0.15 % ID/g
- Biodistribution Brain (24 h post-injection): 0.71 % ID/g
- Biodistribution Fat (24 h post-injection): 0.28 % ID/g
- Biodistribution Heart (24 h post-injection): 1.16 % ID/g
- Biodistribution Kidney (24 h post-injection): 15.29 % ID/g
- Biodistribution Liver (24 h post-injection): 3.02 % ID/g
- Biodistribution Lung (24 h post-injection): 11.01 % ID/g
- Biodistribution Muscle (24 h post-injection): 0.35 % ID/g
- Biodistribution Pancreas (24 h post-injection): 0.69 % ID/g
- Biodistribution Small intestine (24 h post-injection): 2.11 % ID/g
- Biodistribution Spleen (24 h post-injection): 0.69 % ID/g
- Biodistribution Stomach (24 h post-injection): 3.31 % ID/g
- Biodistribution Tumor (24 h post-injection): 25.62 % ID/g
- Biodistribution Bladder (48 h + block (200 nmole of 8)): 0.14 % ID/g
- Biodistribution Blood (48 h + block (200 nmole of 8)): 0.03 % ID/g
- Biodistribution Brain (48 h + block (200 nmole of 8)): 0.03 % ID/g
- Biodistribution Fat (48 h + block (200 nmole of 8)): 0.03 % ID/g
- Biodistribution Heart (48 h + block (200 nmole of 8)): 0.04 % ID/g
- Biodistribution Kidney (48 h + block (200 nmole of 8)): 0.45 % ID/g
- Biodistribution Liver (48 h + block (200 nmole of 8)): 0.13 % ID/g
- Biodistribution Lung (48 h + block (200 nmole of 8)): 0.09 % ID/g
- Biodistribution Muscle (48 h + block (200 nmole of 8)): 0.02 % ID/g
- Biodistribution Pancreas (48 h + block (200 nmole of 8)): 0.03 % ID/g
- Biodistribution Small intestine (48 h + block (200 nmole of 8)): 0.08 % ID/g
- Biodistribution Spleen (48 h + block (200 nmole of 8)): 0.11 % ID/g
- Biodistribution Stomach (48 h + block (200 nmole of 8)): 0.14 % ID/g
- Biodistribution Tumor (48 h + block (200 nmole of 8)): 1.22 % ID/g
- Tumor/Blood ratio (48 h + block (200 nmole of 8)): 45.4
- Tumor/Kidney ratio (48 h + block (200 nmole of 8)): 2.7
- Tumor/Muscle ratio (48 h + block (200 nmole of 8)): 75.1
- Biodistribution Bladder (48 h post-injection): 0.38 % ID/g
- Biodistribution Blood (48 h post-injection): 0.06 % ID/g
- Biodistribution Brain (48 h post-injection): 0.41 % ID/g
- Biodistribution Fat (48 h post-injection): 0.25 % ID/g
- Biodistribution Heart (48 h post-injection): 0.84 % ID/g
- Biodistribution Kidney (48 h post-injection): 8.78 % ID/g
- Biodistribution Liver (48 h post-injection): 1.65 % ID/g
- Biodistribution Lung (48 h post-injection): 9.22 % ID/g
- Biodistribution Muscle (48 h post-injection): 0.39 % ID/g
- Biodistribution Pancreas (48 h post-injection): 0.59 % ID/g
- Biodistribution Small intestine (48 h post-injection): 1.22 % ID/g
- Biodistribution Spleen (48 h post-injection): 0.67 % ID/g
- Biodistribution Stomach (48 h post-injection): 1.82 % ID/g
- Biodistribution Tumor (48 h post-injection): 13.92 % ID/g
- Tumor/Blood ratio (48 h post-injection): 212.0
- Tumor/Kidney ratio (48 h post-injection): 1.5
- Tumor/Muscle ratio (48 h post-injection): 52.0
